Experimental data from PubChem BioAssay AID179 (DTP/NCI, 2004).
Active and inactive are the calls of the source.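 How the source made its calls: active means compounds giving half or more protection of infected cells from virus-caused growth loss, again on retest; inactive means the rest.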

System: CEM cells HIV-1 protection, formazan growth assay
Experiment: NCI AIDS Antiviral Assay
Details: for IC50: measured here: growth of uninfected CEM cells
Summary of the method: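 Five concentrations of each compound were applied to infected and uninfected human CEM cells. Protection from HIV-1 was judged from growth measured with a soluble formazan assay.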

SMILES | EC50 [µM] | IC50 [µM] | outcome
CO[C@H]1/C=C/O[C@@]2(C)Oc3c(C)c(O)c4c(O)c(c(/C=N/N5CCCN(Cc6ccccc6)CC5)c(O)c4c3C2=O)NC(=O)/C(C)=C\C=C\[C@H](C)[C@H](O)C(C)[C@@H](O)C(C)[C@H](OC(C)=O)[C@@H]1C (some centres not stated) | > 200 | 8.32 | –
O=C(CC(=O)N1N=C(c2ccccc2)C(N=Nc2ccccc2Cl)C1=O)Nc1ccccc1Cl (configuration not stated) | > 52.5 | 29.5 | –
NC(CS/C=C\C(=O)O)C(=O)O (configuration not stated) | > 27.5 | > 27.5 | –
Cn1c(C(O)C2(c3cccnc3)SCCCS2)cc2ccccc21 (configuration not stated) | > 200 | 75.9 | –
CCOP1(=O)OCC(C(C)(C)C)CO1 (configuration not stated) | > 200 | > 200 | –
O=C(CC(=O)c1ccccc1)C(=O)Nc1ccc(Cl)cc1 | > 12 | > 12 | –
CC(=O)C1C(=O)C(=O)N(c2ccc([N+](=O)[O-])cc2[N+](=O)[O-])C1=O (configuration not stated) | > 200 | > 200 | –
O=C(C(=Cn1c(=S)[nH]c2ccc([N+](=O)[O-])cc21)C(=O)c1ccccc1)c1ccccc1 | > 200 | 81.3 | –
C(=C\c1cnc2ccccc2n1)/c1ccc2c(c1)OCO2 | > 200 | > 200 | –
CN(C)/C=C/c1nnnn1-c1ccc(I)cc1 | > 200 | 33.1 | –
CC1=NNC(=S)NCCCN2CCN(CCCNC(=S)NN=C(C)C=NNC(=S)NCCCN3CCN(CCCNC(=S)NN=C1)CC3)CC2 | > 123 | > 123 | –
CN(C)/C=C\c1c([N+](=O)[O-])ncn1C | > 200 | > 200 | –
CO/C=C(\Br)c1ccc2c(c1)OCO2 | – | – | inactive
CC1c2c(cc(=O)n(Cc3ccccc3)c2O)C(=O)N1C (configuration not stated) | > 126 | 112 | –
CC(C)(C)[Si](C)(C)OC[C@H]1O[C@@H](n2ccc(=O)[nH]c2=O)[C@H](O[Si](C)(C)C(C)(C)C)[C@]1(O)[C@H](Cl)C(N)=O | > 200 | 3.72 | –
CC1C(c2cc(C(C)(C)C)c(O)c(C(C)(C)C)c2)c2cc3c(cc2OC1N1CCOCC1)OCO3 (configuration not stated) | > 200 | > 200 | –
O=C1C(=O)N(c2ccc(Cl)c(Cl)c2)C(=O)C(=O)C1c1nc2ccccc2s1 | – | – | inactive
Cc1c2ccccc2nc(CSc2ccccc2N)[n+]1[O-] | 64.6 | > 200 | –
Cc1ccc2c(=O)c3c(O)c4c(cc3n(C)c2c1)OC(C)(C)C=C4 | > 200 | > 200 | –
COC(=O)c1cc(C(=CCC[C@H]2CC[C@@]3(C)C(CCC4C3CC[C@@]3(C)C4CC[C@@H]3C(C)CCCC(C)C)C2)c2cc(Cl)c(OC(=O)c3ccccc3)c(C(=O)OC)c2)cc(Cl)c1OC(=O)c1ccccc1 (some centres not stated) | > 200 | > 200 | –
CCC(=O)C1(c2ccccc2)CCN(C)CC1 | > 1070 | – | –
Cn1nc2ccc([N+](=O)[O-])c(Cn3nnc4ccccc43)c2n1 | > 200 | 58.9 | –

SMILES | EC50 [µM] | IC50 [µM] | outcome
CC(=O)Oc1cc(S(=O)(=O)Nc2n[nH]c(Nc3ccc(C)cc3)n2)c(S)cc1Cl | 155 | 263 | –
COC(=O)c1sc(C(=O)OC)c2c1CSC2 | – | – | inactive
COc1ccc(N2C(=O)C3c4[nH]c5cc(C)ccc5c4C4CCC(C(C)(C)C)CC4C3C2=O)cc1 (configuration not stated) | > 200 | 105 | –
CC[C@H]1CN2CCc3c([nH]c4ccccc34)C2C[C@@H]1CCO (some centres not stated) | > 120 | > 120 | –
CCOC(=O)Nc1cc2c(c(N)n1)N=C(c1ccc(Cl)cc1Cl)CN2 | > 10 | 0.017 | –
CCCCCCCCCCCCCCCCCCOCC(CO[P+](=O)O)OCCCCCCCCCCCCCCCCCC (configuration not stated) | > 50.1 | > 50.1 | –
CC[N+]1(C)CCC(O)(/C=C/c2ccc(Cl)cc2)C(C(=O)/C=C/c2ccc(Cl)cc2)C1 (configuration not stated) | > 20 | 2.95 | –
CCN(CC)CCN(C(=Nc1ccccc1)N1CCOCC1)c1ccccc1 | > 200 | 41.7 | –
CN(CCn1cnc2c1c(=O)n(C)c(=O)n2C)C1CCCCC1 | > 200 | > 200 | –
COC(=O)/C(=N/NC(N)=O)C(C(=O)OC)C(=O)C(=O)Nc1ccc(Cl)cc1 (configuration not stated) | – | – | inactive
O=C(O)CN(CCN(CC(=O)O)CC(=O)O)CC(=O)O.[Ni+2] | > 200 | > 200 | –
CCOC(=O)C1=C(C)Nc2ccccc2S1 | – | – | inactive
CCOC(COc1c2occc2cc2ccc(=O)oc12)OCC | > 141 | 51.3 | –
CCn1nc(C)c2c1C(=O)NCC(=O)N2 | > 200 | > 200 | –
Nc1ncnc2c1ncn2C1OC(CO)C(O)C1O (configuration not stated) | – | – | inactive
Cc1ccnc2c1ccc1nc3ccccc3n12 | > 200 | > 200 | –
Nc1cccc2c1C1=NNC(=O)CC1C2 (configuration not stated) | – | – | inactive
CCOC(=O)C1C(=O)c2ccccc2CN1Cc1ccccc1 (configuration not stated) | – | – | inactive
COc1ccc(CC(=O)NC(C)Cc2ccc(OC)c(OC)c2)cc1OC (configuration not stated) | – | – | inactive
CC1(C)C2CC(=O)C1(C)C(OCc1ccccc1)C2Br (configuration not stated) | > 200 | > 100 | –
N=C(N)SCCC(=O)CCSC(=N)N | > 85.1 | 63.1 | –
C/C=C1/C(=C/c2[nH]c(/C=c3\[nH]/c(=C/C4=NC(=O)C(CC)=C4C)c(C)c3CCC(=O)O)c(CCC(=O)O)c2C)NC(=O)C1C (configuration not stated) | – | – | inactive

SMILES | EC50 [µM] | IC50 [µM] | outcome
COC(=O)c1c(C)cc(OC(=O)c2c(C)cc(O)c(/C=N\Nc3ccccc3)c2O)c(C)c1O | > 200 | 9.77 | –
CC(C)OP(=O)(CCCCCCCCC/C=C/c1ccc2c(c1)OCCOCCOCCOCCO2)OC(C)C | > 200 | 12.3 | –
O=C1OC(=O)C2C3CCCCC3=C3CCCCC3C12 (configuration not stated) | > 200 | > 200 | –
CCCCCCC1N(Cc2ccc(Cl)cc2)CCCN1Cc1ccc(Cl)cc1 | > 200 | 12 | –
CN1COc2ccc(Br)cc2C1 | – | – | inactive
CCCCCCCCCCCCCC(=O)OCC1OC(OC)C(NC(=O)N(CCCl)N=O)C(O)C1O (configuration not stated) | > 18.6 | 12 | –
C/C(CC(=O)CCC(=O)Nc1cccc(C(F)(F)F)c1)=N\NC(=O)NN | > 10 | > 10 | –
O=S1(=O)c2ccccc2N=C(c2ccccc2Cl)CC1c1ccc(F)cc1 (configuration not stated) | > 14.8 | 10.5 | –
O=C(NNC1=NCCN1)c1ccco1 | > 200 | > 200 | –
COc1ccc(N=Nc2c(C)c(C#N)c(=S)n(C3OC(CO)C(O)C(O)C3O)c2-c2ccccc2)cc1 (configuration not stated) | > 200 | 28.2 | –
CCn1c2ccccc2c2ccc(C3C(C(=O)OC)=C(C)NC(C)=C3C(=O)OC)cc21 | – | – | inactive
CCC(C)C(NC(=O)c1ccccc1SC(=O)CCCC[n+]1ccccc1)C(N)=O (configuration not stated) | > 35.5 | 4.07 | –
CCOC(=O)C1=C(O)C(=O)NC(C(=O)OCC)=C(c2ccccc2)C1 | > 50.1 | > 50.1 | –
C[Si](C)(c1ccccc1)C1CC(=O)CC(=O)C1 | > 380 | 245 | –
c1cc(-c2nc(-c3ccncc3)nc(-c3ccncc3)n2)ccn1 | > 200 | > 200 | –
C[C@@H]1CC(=O)C2CCCC1C2=O (some centres not stated) | – | – | inactive
O=C1CCCCc2scc(C(=O)O)c2N1 | > 1120 | > 1120 | –
CCCCCCCCCCCCNC(=O)NCC(OCC)OCC | > 200 | 31.6 | –
O=C1NC(SSC2=NNC3(C(=O)N2)c2ccccc2-c2ccccc23)=NNC12c1ccccc1-c1ccccc12 | – | – | inactive
O=CC[C@]12CC(=O)OC(C=CC13OCCO3)C2 | > 200 | > 200 | –
O=C1c2cccc3cccc(c23)C(=O)N1C(Cc1ccccc1)c1ccccc1 (configuration not stated) | > 200 | > 200 | –
O=C(c1cccs1)N(C(=S)N1CCN(c2ccccn2)CC1)c1ccccc1 | > 17.8 | > 17.8 | –

SMILES | EC50 [µM] | IC50 [µM] | outcome
O=c1ccnc(Nc2ccc[nH]c2=S)[nH]1 | > 589 | 282 | –
Cc1cc(C)cc(NC(=O)CCC(=O)C2CCC/C2=N\NC(=O)C(=O)NN)c1 (configuration not stated) | > 67.6 | > 67.6 | –
Cn1cc(C(=O)NCCC(=N)N)cc1NC(=O)C1=[N+](C)C=C(NC(=O)c2cccc(C(=O)NC3=CC(C(=O)Nc4cc(C(=O)NCCC(=N)N)cn4C)=[N+](C)C3)c2)C1 | 3.47 | 74.1 | –
O=C1Oc2cc3c(c4cccc1c24)OCN(c1ccc(Cl)cc1)C3 | > 8.13 | > 8.13 | –
Nc1ccc2cc(S(=O)(=O)O)cc(O)c2c1N=Nc1ccc(NC(=O)c2ccc(C(=O)Nc3ccc(N=Nc4c(N)ccc5cc(S(=O)(=O)O)cc(O)c45)c(S(=O)(=O)O)c3)cc2)cc1S(=O)(=O)O | – | – | active
C/C=C1/CN2C3CC1C1(C(=O)OC)C(OC(C)=O)[C@]4(C[C@H]21)c1cc(OC)ccc1N(C)C34 (some centres not stated) | – | – | inactive
COc1ccc(/C=C2\C=Cc3ccccc32)cc1OC | > 200 | 33.9 | –
C=CCc1ccccc1OP(=O)(Oc1ccc(C(C)(C)C)cc1)Oc1ccc(C(C)(C)C)cc1 | – | – | inactive
COc1ccc(/C=C2\C(=O)NC(=O)c3ccccc32)cc1OC | > 60.3 | 31.6 | –
[Ni+2].[O-]/C(=N\N=C\c1ccccn1)c1ccccc1O.[O-]/C(=N\N=C\c1ccccn1)c1ccccc1O | > 200 | 6.17 | –
O=C(O)c1c(CC(Cc2ccc3c(c2)CCCC3)C(=O)O)ccc2c1CCCC2 (configuration not stated) | > 200 | 141 | –
COC(=O)[C@@]12CN(C)[C@@H](C(C)(C)C)N1C(=O)OC2c1ccccc1 (some centres not stated) | > 200 | > 200 | –
Cc1ccc(C)c(NC(=O)c2cc(-c3ccc([N+](=O)[O-])cc3)nc(N)n2)c1 | > 70.8 | > 70.8 | –
O=C(CSc1nnc(Cc2ccccc2)o1)Nc1ccc(Cl)cc1[N+](=O)[O-] | > 617 | 25.1 | –
O=[N+]([O-])c1ccc(NC(=S)N=Nc2c(O)[nH]c3ccccc23)cc1 | > 200 | 15.5 | –
O=C(CCCN1CCc2[nH]c3cc(F)ccc3c2C1)c1ccc(F)cc1 | > 200 | 24.5 | –
CCC(CO)NC(=O)Nc1ccc(S(=O)(=O)c2ccc([N+](=O)[O-])cc2)cc1 (configuration not stated) | > 200 | 12 | –
O=c1c(Cc2ccccc2)c(-c2ccccc2)[nH]n1C1=NCCN1 | > 200 | 19.1 | –
COc1cccc(C=O)c1[O-].COc1cccc(C=O)c1[O-].[Cu+2] | > 97.7 | 9.33 | –
